Key:
Assay in all cases: relative viability (nuclei count vs DMSO), 5 days (fraction); higher = more cells survive
[1] = compound: C1=CC2=NC=CN=C2C=C1/C=C/3\C(=O)NC(=O)S3 + Cc1nc(Nc2ncc(C(=O)Nc3c(C)cccc3Cl)s2)cc(N2CCN(CCO)CC2)n1 [Dasatinib] (partner 0.075 µM)
In short: (§1)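 Dosing by pin tool came one day after lung cancer cell lines were seeded in 1536-well plates, using either one drug or a fixed anchor-drug dose plus five library-drug doses (not always all listed) in √10 steps. After 5 days, nuclei were counted on 4× images. Relative viability is treated-well nuclei count divided by vehicle-well nuclei count, and values are medians of duplicate plates.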

BGJ398 + Trametinib = compound: CCN1CCN(c2ccc(Nc3cc(N(C)C(=O)Nc4c(Cl)c(OC)cc(OC)c4Cl)ncn3)cc2)CC1 [BGJ398] + CC(=O)Nc1cccc(-n2c(=O)n(C3CC3)c(=O)c3c(Nc4ccc(I)cc4F)n(C)c(=O)c(C)c32)c1 [Trametinib] (partner 0.02 µM)
In short: as §1

BGJ398 + Foretinib = compound: CCN1CCN(c2ccc(Nc3cc(N(C)C(=O)Nc4c(Cl)c(OC)cc(OC)c4Cl)ncn3)cc2)CC1 [BGJ398] + COc1cc2c(Oc3ccc(NC(=O)C4(C(=O)Nc5ccc(F)cc5)CC4)cc3F)ccnc2cc1OCCCN1CCOCC1 [Foretinib] (partner 0.25 µM)
In short: as §1

BGJ398 + Pictilisib = compound: CCN1CCN(c2ccc(Nc3cc(N(C)C(=O)Nc4c(Cl)c(OC)cc(OC)c4Cl)ncn3)cc2)CC1 [BGJ398] + CS(=O)(=O)N1CCN(Cc2cc3nc(-c4cccc5[nH]ncc45)nc(N4CCOCC4)c3s2)CC1 [Pictilisib] (partner 1 µM)
In short: as §1

Cell Line	relative viability ([1]; first compound 0.02 µM)	relative viability ([1]; first compound 0.06325 µM)	relative viability ([1]; first compound 0.2 µM)	relative viability ([1]; first compound 0.6325 µM)	relative viability ([1]; first compound 2 µM)	relative viability (BGJ398 + Trametinib; first compound 0.01 µM)	relative viability (BGJ398 + Trametinib; first compound 0.03162 µM)	relative viability (BGJ398 + Trametinib; first compound 0.1 µM)	relative viability (BGJ398 + Trametinib; first compound 0.3162 µM)	relative viability (BGJ398 + Trametinib; first compound 1 µM)	relative viability (BGJ398 + Foretinib; first compound 0.01 µM)	relative viability (BGJ398 + Foretinib; first compound 0.03162 µM)	relative viability (BGJ398 + Foretinib; first compound 0.1 µM)	relative viability (BGJ398 + Foretinib; first compound 0.3162 µM)	relative viability (BGJ398 + Foretinib; first compound 1 µM)	relative viability (BGJ398 + Pictilisib; first compound 0.01 µM)	relative viability (BGJ398 + Pictilisib; first compound 0.03162 µM)	relative viability (BGJ398 + Pictilisib; first compound 0.1 µM)	relative viability (BGJ398 + Pictilisib; first compound 0.3162 µM)	relative viability (BGJ398 + Pictilisib; first compound 1 µM)
NCI-H1437	0.656	0.353	0.406	0.353	0.174	0.59	0.508	0.559	0.519	0.393	1.42	1.29	1.27	1.25	1.28	0.375	0.514	0.439	0.494	0.561
COR-L23	0.446	0.481	0.395	0.477	0.344	0.512	0.64	0.63	0.486	0.68	0.955	1.09	1.04	0.865	1.14	0.691	0.826	0.788	0.808	0.87
ABC-1	0.507	0.757	0.488	0.611	0.538						0.962	1.19	1.05	1.26	0.973	0.63	0.721	0.722	0.693	0.916
SW 900	0.499	0.788	0.625	0.883	0.486	0.723	0.679	0.655	0.735	0.568	0.856	0.823	0.895	0.737	0.668					
NCI-H838	0.278	0.179	0.311	0.257	0.187	0.41	0.537	0.51	0.403	0.382	0.927	1.08	0.962	0.889	0.914	0.436	0.393	0.417	0.338	0.277
NCI-H1648						0.411		0.474	0.393	0.417										
A549											0.919	0.939	0.97	0.944	1.09	0.486	0.475	0.453	0.535	0.596
A-427	0.685	0.753	0.692	0.659	0.541	0.624	0.595	0.585	0.427	0.438	1.09	0.919	0.954	0.715	0.623	0.622	0.644	0.506	0.334	0.158
NCI-H1792	0.763	0.653	0.807	0.818	0.311	0.359	0.361	0.342	0.215	0.17						0.229	0.32	0.26	0.238	0.138
LCLC-97TM1	0.974	0.762	0.775	0.8	0.306	0.185	0.205	0.215	0.21	0.218	0.813	0.923	0.947	0.925	1.03	0.186	0.189	0.207	0.298	0.163
NCI-H1703											0.37	0.329	0.342	0.278	0.331	0.233	0.198	0.21	0.218	0.242
LCLC-103H	0.427	0.571	0.474	0.461	0.214	0.703	0.623	0.65	0.642	0.535	0.79	0.765	0.755	0.746	0.541	0.652	0.576	0.486	0.52	0.465
PC-3 [JPC-3]	0.84	1.05	0.968	1.01	0.821	0.75		0.787		0.782	1.15		1.06	1	1.02	0.716		0.708	0.492	0.689
BEN	0.362	0.35	0.297	0.352	0.252	0.84	1.02	1.03	0.899	0.952	0.722	0.866	0.568	0.395	0.453	0.491	0.609	0.534	0.478	0.473
NCI-H1666	0.716	0.835	0.772	0.819	0.575	0.735	0.908	0.965	0.911	0.75	1.03	1.01	0.963	0.945	1.01	0.511	0.461	0.536	0.374	0.329
Calu-6											0.879	0.819	0.912	0.836	0.88	0.848	0.987	0.935	0.898	0.991
NCI-H2342	0.305	0.315	0.334	0.309	0.283	1.04	0.906	0.893	1.03	0.978	1.05	0.98	1.08	1.07	1.1					
EBC-1											0.0959	0.0812	0.0909	0.109	0.108	0.41	0.414	0.357	0.515	0.451
NCI-H1299											1.09	1.06	1.09	1.15	1.03	0.742	0.807	0.847	0.827	0.965
NCI-H522	0.899	1.06	0.942	1.09	0.714	0.743	0.797	0.709	0.644	0.736										
IA-LM											1.2	1.08	1.42	1.15	1.14	0.343	0.39	0.334	0.391	0.311

Source: the supplement of paper PMC10307832
